# Values of other authors as cited in patent US6767992B1 (PTC Pharma AG, priority 2001, dated 2004).
# System: RPMI 8322 melanoma cells
substance,measurement,setting,value
L-prolyl-L-m-sarcolysyl-L-p-fluorophenylalanine [PSF],times more toxic than m-sarcolysine,relative to m-sarcolysine,28 times
same,times more toxic than melphalan,relative to melphalan,35 times
